{
  "source": "patent US6001882A",
  "about": "(priority 1997, dated 1999)",
  "key": {"[1]": {"test_system": "normal PBMC", "test": "Lymphocyte proliferation (3H-TdR incorporation), ConA-stimulated PBMC from normal human subject", "type": "cell-based", "conditions": "for IC50: read-out: IC50 of ConA-induced cell proliferation; for IC100: 72 h, read-out: concentration at which proliferation was completely inhibited", "text": "In two of the types of lymphocytes, the mitogen, ConA, was used to induce proliferation, as described (Fox et al., 1993, Cell. Immunol. 150:45-58). The third type of lymphocytes used in this example proliferated actively in vitro without the need for mitogenic stimulation. The three types of lymphocytes which were used in this example were: PBMC obtained from a normal human subject and stimulated with ConA; PBMC, including malignant CD4+ T-lymphocytes, obtained from a human subject having CTCL and stimulated with ConA; and PBMC obtained from a normal human subject, which PBMC were exposed to Epstein-Barr virus (EBV) after being obtained from the subject, to produce transformed lymphocytes. It is known that EBV-transformed B-lymphocytes proliferate actively in vitro (Polack, 1996, Proc. Natl. Acad. Sci. U.S.A. 93:10411-10416; Longnecker, 1994, Leukemia 8:546-550).\nPeripheral blood mononuclear cells (PBMC) were obtained by separating them from whole blood, using Ficoll-Paque separation techniques and media (Boyum, 1964, Nature 793-794). After they were obtained, PBMC were resuspended in RPMI 1640 medium, which comprised 10% (v/v) fetal bovine serum (GIBCO, Grand Island, N.Y.), and were distributed into the wells of 96-well microtiter plates. PBMC transformed using EBV were made as described (Neitzel, 1986, Hum. Gen. 73:320-326)\nThis stock solution stored at 4° C. in the dark. A stock solution comprising 462.5 μM 8-methoxypsoralen (8-MOP) was prepared in 2% (v/v) benzyl alcohol. 8-MOP was obtained from Sigma (St. Louis, Mo.).\nIn cultures of transformed leukocytes in which 8-MOP was used, the concentrations of 8-MOP which were used were 92.5 μM, 18.5 μM, 3.7 μM, 0.74 μM, 0.15 μM, and 0.030 μM. Thereafter, ConA was then added to preselected wells to achieve a final concentration of 10 μg/ml of ConA in those wells.\nFollowing preparation of the microtiter culture plates, preselected plates were illuminated with fluorescent visible light for 10-30 minutes, using four fluorescent bulbs (type F15T8CW, TFC Inc., Taiwan) spaced at a distance of 9 cm above the plates. Other preselected plates were illuminated with 0.5-2 Joules per square centimeter UV-A light using a UV-A light box containing 8 UVAR 06-91 bulbs. Still other preselected plates were not exposed to light. The covers of plates which were exposed to light were left in place during illumination.\nFollowing illumination, plates which had been illuminated were placed into a dark incubator which was maintained at 37° C. Non-illuminated plates were placed into the incubator immediately after preparation. All plates were incubated for seventy-two hours. During the final eighteen hours of incubation, tritiated thymidine (^3 H-TdR) was added to each well of each plate. No extraordinary precautions were used to prevent light exposure during the addition of ^3 H-TdR.\nLymphocyte proliferation was assessed by measuring the extent of incorporation of ^3 H-TdR into newly synthesized DNA within the cells at the end of the seventy-two hour incubation period, as described (Fox, 1993, Cell. Immunol. 150:45-58)."}, "[2]": {"test_system": "PBMC obtained from a patient having CTCL", "test": "Induction of apoptosis of CTCL PBMC, TUNEL assay (Example 2)", "type": "cell-based, human", "conditions": "for percentage of PBMC which underwent apoptosis: 10 μM hypericin or 100 ng/ml 8-MOP", "procedure": "The processing of neoplastic leukocytes, the media and stock solutions used, and the procedures which were used were the same as those presented in Example 1, except as described below.\nCultures were illuminated using fluorescent light for 20 minutes, illuminated with 2 J/cm^2 UV-A light or were not illuminated. After 24 and 48 hours, apoptosis was measured using a TUNEL assay, as described (Sgonc, 1994 Trends Gen. 10:41-42). The TUNEL assay specifically labels free ends of internucleosomally-cleaved DNA--the hallmark of the apoptotic process."}, "[3]": {"test_system": "malignant leukocytes", "test": "Flow cytometric sorting of apoptotic malignant leukocytes (dUTP-FITC incorporation)", "type": "cell-based, human", "conditions": "10 μM hypericin or 0.462 μM 8-MOP, 18 h", "text": "FIG. 8, comprising Panels A-G, is a series of graphs which represent distributions of cell types within various cultures, as assessed by flow cytometric cell sorting, using incorporation of dUTP-FITC into fragmented DNA as a selection criterion. Malignant leukocytes which have not been induced to undergo apoptosis are represented as points which are located below an imaginary horizontal line located at approximately 2×10^1 on the vertical axis of each graph. Malignant leukocytes which have been induced to undergo apoptosis are represented as points which are located above an imaginary horizontal line located at approximately 3×10^1 on the vertical axis of each graph. […] The graph in Panel B corresponds to cells which were treated with hypericin and which were not illuminated. The graph in Panel C corresponds to cells which were treated with hypericin and which were illuminated using visible light. The graph in Panel D corresponds to cells which were treated with hypericin and which were illuminated using UV-A light. The graph in Panel E corresponds to cells which were treated with 8-MOP and which were not illuminated. The graph in Panel F corresponds to cells which were treated with 8-MOP and which were illuminated using visible light. The graph in Panel G corresponds to cells which were treated with 8-MOP and which were illuminated using UV-A light.\nHypericin-treated malignant leukocytes and 8-MOP-treated leukocytes were photoactivated using visible light for 20 minutes or 2 J/cm^2 UV-A light, or were not photoactivated, as described in Example 1. 18 hours after photoactivation, or 18 hours after preparation of the cultures which were not photoactivated, leukocyte cultures were harvested, and apoptotic cells were separated from non-apoptotic cells using a FACScan flow cytometer (Becton Dickinson Immunocytometry Systems, San Jose, Calif.). Apoptotic cells were distinguished from non-apoptotic cells based on increased dUTP-FITC incorporation."}, "[4]": {"test_system": "PBMC obtained from a normal human subject", "test": "Induction of apoptosis in normal PBMC, TUNEL assay (Example 3)", "type": "cell-based", "conditions": "for percentage of PBMC which underwent apoptosis: Normal, 18 h"}, "[5]": {"test_system": "PBMC obtained from a subject having CTCL", "test": "Induction of apoptosis in CTCL PBMC, TUNEL assay (Example 3)", "type": "cell-based, human", "conditions": "for percentage of PBMC which underwent apoptosis: CTCL, 18 h; for capability of inducing apoptosis: malignant leukocytes"}},
  "note": "Several values for one entry are separate records, joined by “and”; a condition that tells them apart may be missing. Identical values can stand only once. Like-named read-outs stand apart in the source and are kept apart here.",
  "data": [
    {"smiles": "Cc1cc(O)c2c(=O)c3c(O)cc(O)c4c5c(O)cc(O)c6c(=O)c7c(O)cc(C)c8c1c2c(c34)c(c78)c65", "note": "[hypericin, 1,3,4,6,8,13-Hexahydroxy-10,11,dimethyl-phenanthro[1,10,9,8,-opqra]perylene-7,14-dione]", "values": [
      {"measurement": "IC50", "setting": "[1]; Homo sapiens, PBMC, 10 min, visible light, 10 min", "result": 760, "unit": "nM"},
      {"measurement": "IC50", "setting": "[1]; Homo sapiens, PBMC, 20 min, visible light, 20 min", "result": 110, "unit": "nM"},
      {"measurement": "IC100", "setting": "[1]; Homo sapiens, PBMC, visible light, 10 min", "result": 3.2, "unit": "µM"},
      {"measurement": "IC100", "setting": "[1]; Homo sapiens, PBMC, visible light, 20 min", "result": 0.64, "unit": "µM"},
      {"measurement": "IC50", "setting": "[1]; Homo sapiens, PBMC, UV-A, 0.5 J/sc", "result": 4600, "unit": "nM"},
      {"measurement": "IC50", "setting": "[1]; Homo sapiens, PBMC, UV-A, 1 J/sc", "result": 2100, "unit": "nM"},
      {"measurement": "IC50", "setting": "[1]; Homo sapiens, PBMC, not illuminated, benzyl alcohol vehicle itself inhibitory at highest concentrations", "result": 22000, "unit": "nM"},
      {"measurement": "inhibition of mitogen-induced proliferation", "setting": "[1]; normal PBMC", "result": "inhibits mitogen-induced proliferation of PBMC"},
      {"measurement": "IC50", "setting": "[1]; not illuminated, benzyl alcohol vehicle itself inhibitory at highest concentrations", "result": 23200, "unit": "nM"},
      {"measurement": "effect of 30 min illumination on inhibition of proliferation", "setting": "[1]; visible light 30 min, relative to shorter illumination", "result": "did not significantly increase inhibition of cell proliferation"},
      {"measurement": "IC50", "setting": "[1]; visible light, 10 min", "result": "680 nM and 800 nM"},
      {"measurement": "IC50", "setting": "[1]; visible light, 20 min", "result": "180 nM and 100 nM"},
      {"measurement": "percentage of PBMC which underwent apoptosis", "setting": "[2]; 24 h, UV-A 2 J/cm^2", "result": 88, "unit": "percentage"},
      {"measurement": "percentage of PBMC which underwent apoptosis", "setting": "[2]; 24 h, no light", "result": 11.5, "unit": "percentage"},
      {"measurement": "percentage of PBMC which underwent apoptosis", "setting": "[2]; 24 h, visible light 20 min", "result": 97, "unit": "percentage"},
      {"measurement": "percentage of PBMC which underwent apoptosis", "setting": "[2]; 48 h, UV-A 2 J/cm^2", "result": 96, "unit": "percentage"},
      {"measurement": "percentage of PBMC which underwent apoptosis", "setting": "[2]; 48 h, no light", "result": 18, "unit": "percentage"},
      {"measurement": "percentage of PBMC which underwent apoptosis", "setting": "[2]; 48 h, visible light 20 min", "result": 91, "unit": "percentage"},
      {"measurement": "potency as inducer of apoptosis, hypericin vs 8-MOP", "setting": "[2]; UV-A light", "result": "approximately equally potent inducers of apoptosis of malignant leukocytes"},
      {"measurement": "potency as inducer of apoptosis, hypericin vs 8-MOP", "setting": "[2]; visible light", "result": "much more potent inducer of apoptosis of malignant leukocytes than 8-MOP"},
      {"measurement": "induction of apoptosis (flow cytometry, FIG. 8)", "setting": "[3]; UV-A 2 J/cm^2", "result": "induced apoptosis in most cells"},
      {"measurement": "induction of apoptosis (flow cytometry, FIG. 8)", "setting": "[3]; no photoactivation", "result": "neither hypericin nor 8-MOP induced significant apoptosis"},
      {"measurement": "induction of apoptosis (flow cytometry, FIG. 8)", "setting": "[3]; visible light 20 min", "result": "induced apoptosis in nearly all cells"},
      {"measurement": "percentage of PBMC which underwent apoptosis", "setting": "[4]; 1 μM, UV-A 2 J/cm^2", "result": 21.2, "unit": "percentage"},
      {"measurement": "percentage of PBMC which underwent apoptosis", "setting": "[4]; 1 μM, no light", "result": 4.8, "unit": "percentage"},
      {"measurement": "percentage of PBMC which underwent apoptosis", "setting": "[4]; 1 μM, visible light 20 min", "result": 18.2, "unit": "percentage"},
      {"measurement": "percentage of PBMC which underwent apoptosis", "setting": "[4]; 10 μM, UV-A 2 J/cm^2", "result": 37.3, "unit": "percentage"},
      {"measurement": "percentage of PBMC which underwent apoptosis", "setting": "[4]; 10 μM, no light", "result": 5.4, "unit": "percentage"},
      {"measurement": "percentage of PBMC which underwent apoptosis", "setting": "[4]; 10 μM, visible light 20 min", "result": 87.9, "unit": "percentage"},
      {"measurement": "capability of inducing apoptosis", "setting": "[4]; normal leukocytes, visible light", "result": "capable of inducing apoptosis in both normal and malignant leukocytes"},
      {"measurement": "percentage of PBMC which underwent apoptosis", "setting": "[5]; 1 μM, UV-A 2 J/cm^2", "result": 26.1, "unit": "percentage"},
      {"measurement": "percentage of PBMC which underwent apoptosis", "setting": "[5]; 1 μM, no light", "result": 2.6, "unit": "percentage"},
      {"measurement": "percentage of PBMC which underwent apoptosis", "setting": "[5]; 1 μM, visible light 20 min", "result": 17.2, "unit": "percentage"},
      {"measurement": "percentage of PBMC which underwent apoptosis", "setting": "[5]; 10 μM, UV-A 2 J/cm^2", "result": 94.4, "unit": "percentage"},
      {"measurement": "percentage of PBMC which underwent apoptosis", "setting": "[5]; 10 μM, no light", "result": 2.8, "unit": "percentage"},
      {"measurement": "percentage of PBMC which underwent apoptosis", "setting": "[5]; 10 μM, visible light 20 min", "result": 94.3, "unit": "percentage"},
      {"measurement": "capability of inducing apoptosis", "setting": "[5]; UV-A light", "result": "capable of inducing apoptosis in malignant leukocytes"},
      {"measurement": "capability of inducing apoptosis", "setting": "[5]; visible light", "result": "capable of inducing apoptosis in both normal and malignant leukocytes"}
    ]}
  ]
}
